The nature of data set [1]: in vitro dissolution test of Drug 2 compositions in Model Fasted Duodenal solution. The class given is physicochemical. The conditions noted are these: for AUC / Drug 2 Concentration: MFD solution, 200 μg/mL if all dissolved; for Drug 2 Concentration: 37° C. Here is the method:
The solid compositions of Examples 1-2 were evaluated in an in vitro dissolution test to ascertain concentration enhancement of Drug 1. A […] sample of each solid composition was added in duplicate to a microcentrifuge tube, so that the total concentration of Drug 1 would have been 2000 μg/mL if all of the drug had dissolved. The tubes were placed in a 37° C. temperature-controlled chamber, and 1.8 mL PBS containing 0.5 wt % sodium taurocholic acid and 1-palmitoyl-2-oleyl-sn-glycero-3-phosphocholine (NaTC/POPC, with a 4/1 weight ratio) at pH 6.5 and 290 mOsm/kg (simulating a Model Fasted Duodenal solution) was added to each respective tube. The samples were quickly mixed using a vortex mixer for about 60 seconds. The samples were centrifuged at 13,000 G at 37° C. for 1 minute. The resulting supernatant solution was then sampled and diluted 1:6 (by volume) with methanol and then analyzed by high-performance liquid chromatography (HPLC). The contents of each respective tube were mixed on a vortex mixer and allowed to stand undisturbed at 37° C. until the next sample was taken. Samples were collected at 4, 10, 20, 40, 90, and 1200 minutes.
Examples 3-4 were tested by in vitro dissolution tests to ascertain concentration enhancement of Drug 2 as in Examples 1-2, except that a sufficient amount of material was added to the Model Fasted Duodenal solution to obtain a drug concentration of 200 μg/mL if all of the drug dissolved. As a control (C2), crystalline Drug 2 alone was used.
The concentrations of drug obtained in these samples were used to determine the MDC90 and the AUC90 during the initial 90 minutes.

Data set [2] in a line: in vitro dissolution test of Drug 3 compositions in PBS. Format: physicochemical. The conditions noted are these: for AUC / Drug 3 Concentration: 1000 μg/mL if all dissolved; for Drug 3 Concentration: 37° C.

Counter-ions that a name gives are not always drawn.

The record followed here is patent US8974823B2, “Solid compositions of low-solubility drugs and poloxamers” (Bend Research, Inc., priority 2003, dated 2015).

The molecule `Cc1ncccc1CNC(=O)c1ccc2c(c1)CC[C@@H]1C[C@@](O)(CCC(F)(F)F)CC[C@@]21Cc1ccccc1` [Example C2, 2-phenanthrenecarboxamide,4b,5,6,7,8,8a,9,10-octahydro-7-hydroxy-N-[(2-methyl-3-pyridinyl)methyl]-4b-(phenylmethyl)-7-(3,3,3-trifluoropropyl)-, (4bS,7S,8aR)-] yielded an AUC90 in data set [1] (Drug 2, MFD, initial 90 minutes) of 100 µg·min/mL. Besides, in data set [1] (Drug 2, MFD, initial 90 minutes (MDC90 in the text)), the Cmax90 turned out to be 1000 ng/mL. Besides, the exposure (AUC) (in general, the area under the concentration-time curve, a measure of exposure) is 0 µg·min/mL in data set [1] (Drug 2, time 0 min); 0 µg·min/mL in data set [1] (Drug 2, time 4 min); 0 µg·min/mL in data set [1] (Drug 2, time 10 min); 0 µg·min/mL in data set [1] (Drug 2, time 20 min); 0 µg·min/mL in data set [1] (Drug 2, time 40 min); 100 µg·min/mL in data set [1] (Drug 2, time 90 min). Also, the exposure (AUC) in data set [1] (Drug 2, time 1200 min) was determined as 3400 µg·min/mL. The “Drug 2 Concentration” value stood at 0 µg/mL in data set [1] (time 0 min); 1 µg/mL in data set [1] (time 4 min); 1 µg/mL in data set [1] (time 10 min); 0 µg/mL in data set [1] (time 20 min); 0 µg/mL in data set [1] (time 40 min); 1 µg/mL in data set [1] (time 90 min). Besides, the “Drug 2 Concentration” value in data set [1] (time 1200 min) is 5 µg/mL.
The molecule `Cc1c(O)cccc1C(=O)N[C@@H](CSc1ccccc1)[C@H](O)CN1C[C@H]2CCCC[C@H]2C[C@H]1C(=O)NC(C)(C)C` [Example C3, nelfinavir mesylate] had an AUC90 in data set [2] (Drug 3, initial 90 minutes) of 400 µg·min/mL. In data set [2] (Drug 3, initial 90 minutes (MDC90 in the text)), the Cmax90 is 6000 ng/mL. The area under the curve (AUC) amounted to 0 µg·min/mL in data set [2] (Drug 3, time 0 min); 0 µg·min/mL in data set [2] (Drug 3, time 4 min); 0 µg·min/mL in data set [2] (Drug 3, time 10 min); 100 µg·min/mL in data set [2] (Drug 3, time 20 min); 200 µg·min/mL in data set [2] (Drug 3, time 40 min); 400 µg·min/mL in data set [2] (Drug 3, time 90 min). This molecule also registered an AUC in data set [2] (Drug 3, time 1200 min) of 5100 µg·min/mL. Further, the “Drug 3 Concentration” value stood at 0 µg/mL in data set [2] (time 0 min); 5 µg/mL in data set [2] (time 4 min); 5 µg/mL in data set [2] (time 10 min); 6 µg/mL in data set [2] (time 20 min); 6 µg/mL in data set [2] (time 40 min); 4 µg/mL in data set [2] (time 90 min). In addition, in data set [2] (time 1200 min), the “Drug 3 Concentration” value was 5 µg/mL.
